# Experimental data published in PubChem BioAssay (NCI).
#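 Cells were grown in 96-well plates and exposed to each compound for 48 hours at five concentrations; endpoints were interpolated linearly between bracketing concentrations, or set to the highest concentration if not reached. Abbreviation: GI50, concentration required for 50% inhibition of growth. TGI marks complete inhibition of growth.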
# Assays:
# Assay in all cases: NCI tumour cell line growth inhibition, 48 h
# 786-0 renal = system: 786-0 renal
# IGROV1 ovarian = system: IGROV1 ovarian
# KM12 colon = system: KM12 colon
# LOX IMVI melanoma = system: LOX IMVI melanoma
# MDA-MB-231 breast = system: MDA-MB-231 breast
# NCI/ADR-RES ovarian = system: NCI/ADR-RES ovarian
# SNB-75 CNS = system: SNB-75 CNS
# TK-10 renal = system: TK-10 renal
# U251 CNS = system: U251 CNS
# UACC-257 melanoma = system: UACC-257 melanoma
SMILES,GI50 (786-0 renal),TGI (786-0 renal),GI50 (IGROV1 ovarian),TGI (IGROV1 ovarian),GI50 (KM12 colon),TGI (KM12 colon),GI50 (LOX IMVI melanoma),TGI (LOX IMVI melanoma),GI50 (MDA-MB-231 breast),TGI (MDA-MB-231 breast),GI50 (NCI/ADR-RES ovarian),TGI (NCI/ADR-RES ovarian),GI50 (SNB-75 CNS),TGI (SNB-75 CNS),GI50 (TK-10 renal),TGI (TK-10 renal),GI50 (U251 CNS),TGI (U251 CNS),GI50 (UACC-257 melanoma),TGI (UACC-257 melanoma)
Nc1nc2c(s1)CCc1c-2c(Br)n(Cc2ccccc2)c1Br,7.11 µM,22.9 µM,14.1 µM,37.5 µM,14 µM,33.3 µM,3.98 µM,19.7 µM,14.1 µM,48.7 µM,23.7 µM,87.7 µM,14.5 µM,33.1 µM,4.41 µM,14.9 µM,14 µM,28.2 µM,12.1 µM,25.6 µM
COc1c(C(=O)c2ccc([N+](=O)[O-])cc2)cc(C(C)(C)C)cc1C(C)(C)C,–,> 100 µM,–,> 100 µM,–,> 100 µM,–,27.7 µM,–,–,–,–,–,> 100 µM,–,> 100 µM,–,50.1 µM,–,59.3 µM
CN(C)c1ccc(N=C2C=CC(=[N+](C)C)C=C2)cc1,30 µM,> 100 µM,5.35 µM,37.8 µM,3.91 µM,15 µM,3.86 µM,22.1 µM,6.41 µM,> 100 µM,19.1 µM,> 100 µM,5.86 µM,21.2 µM,9.24 µM,53.4 µM,3.65 µM,15.4 µM,7.12 µM,24.8 µM
COc1cc(OC)c(/C=C\c2ccnc3ccccc23)c(OC)c1,–,17.8 µM,–,15.5 µM,–,16.5 µM,–,13.6 µM,–,15.4 µM,–,10.2 µM,–,–,–,17.8 µM,–,15.2 µM,–,17.8 µM
c1cc2[nH]ncc2cc1-c1nc2ccc3[nH]ncc3c2c2c1CCCC2,2.1 µM,11.3 µM,0.541 µM,7.29 µM,0.563 µM,11.5 µM,0.811 µM,4.54 µM,2.67 µM,11.6 µM,2.08 µM,16.4 µM,0.998 µM,4.36 µM,0.913 µM,21.8 µM,2.66 µM,15.5 µM,1.67 µM,8.21 µM
Cc1ccc2ncnc(N(CC(C)C)CC(C)C)c2c1,18.5 µM,40 µM,23.4 µM,> 100 µM,16.4 µM,40 µM,16.2 µM,34.4 µM,–,–,10.4 µM,24.6 µM,–,–,19.4 µM,37.5 µM,16.5 µM,33.3 µM,–,–
Nc1nc(OCc2cc(Br)cs2)c2[nH]cnc2n1,22.2 µM,> 100 µM,14.5 µM,52.1 µM,23.2 µM,> 100 µM,25.3 µM,98.1 µM,27.8 µM,> 100 µM,29.5 µM,> 100 µM,15.7 µM,90.2 µM,10.2 µM,62.9 µM,28.8 µM,> 100 µM,–,–
CCOC(=O)CSC(=O)NCCCl,–,> 100 µM,–,> 100 µM,–,> 100 µM,–,–,–,–,–,–,–,> 100 µM,–,> 100 µM,–,> 100 µM,–,> 100 µM
COc1ccc(C2CC(c3cc(C)ccc3O)=NC(N)=N2)cc1 (centres undefined),–,> 100 µM,–,> 100 µM,–,> 100 µM,–,> 100 µM,–,–,–,–,–,> 100 µM,–,> 100 µM,–,> 100 µM,–,> 100 µM
CCOC(=O)C1C2CCC(C2)C1(CCl)C(=O)OCC (centres undefined),–,> 100 µM,–,> 100 µM,–,–,–,> 100 µM,–,–,–,–,–,–,–,> 100 µM,–,> 100 µM,–,> 100 µM
N#Cc1c2c(c(N=P(c3ccccc3)(c3ccccc3)c3ccccc3)n3c1nc1ccccc13)CCCC2,–,> 100 µM,–,> 100 µM,–,> 100 µM,–,76.3 µM,–,–,–,–,–,69.7 µM,–,–,–,77.9 µM,–,57.8 µM
CCCCCCCCCCCCCC(=O)OCC1OC(n2cc(F)c(=O)[nH]c2=O)C(NC(=O)OCc2ccccc2)C(OC(=O)CCCCCCCCCCCCC)C1O (centres undefined),–,> 100 µM,–,> 100 µM,–,> 100 µM,–,> 100 µM,–,–,–,–,–,> 100 µM,–,> 100 µM,–,> 100 µM,–,> 100 µM
COc1ccc2c(CN3CCC(C(=O)O)CC3)cc3cc4c(cc3c2c1)OCO4,2.41 µM,14.2 µM,–,–,2.52 µM,10.4 µM,1.9 µM,9.37 µM,3.87 µM,30.7 µM,2.35 µM,6.99 µM,2.41 µM,9.03 µM,3.23 µM,25 µM,2.74 µM,> 100 µM,1.85 µM,3.54 µM
NS(=O)(=O)c1ccc(NC2=CC(=O)C(=O)c3ccccc32)cc1,–,> 100 µM,–,> 100 µM,–,> 100 µM,–,> 100 µM,–,–,–,–,–,> 100 µM,–,> 100 µM,–,> 100 µM,–,> 100 µM
NNC(=O)CNC(=O)c1ccc(Cl)cc1Cl,–,> 100 µM,–,> 100 µM,–,> 100 µM,–,–,–,–,–,–,–,> 100 µM,–,> 100 µM,–,> 100 µM,–,> 100 µM
O=C1c2ccccc2C(=O)N1CCN(CCN1C(=O)c2ccccc2C1=O)Cn1cccn1,–,> 100 µM,–,–,–,> 100 µM,–,> 100 µM,–,–,–,–,–,> 100 µM,–,> 100 µM,–,> 100 µM,–,> 100 µM
C=C(C)[C@@H]1CC[C@]2(C(=O)O)CC[C@]3(C)[C@H](CC[C@@H]4[C@@]5(C)C[C@@H](CC#Cc6ccc(C(F)(F)F)cc6)[C@H](O)C(C)(C)[C@@H]5CC[C@]43C)[C@@H]12,3.2 µM,21.9 µM,3.56 µM,> 100 µM,2.78 µM,> 100 µM,–,–,–,–,47.3 µM,> 100 µM,1.73 µM,5.14 µM,6.11 µM,> 100 µM,1.98 µM,4.75 µM,–,–
CC(=O)c1ccc(OCC(O)CO)cc1 (centres undefined),–,76.2 µM,–,> 100 µM,–,> 100 µM,–,–,–,–,–,–,–,> 100 µM,–,> 100 µM,–,> 100 µM,–,> 100 µM
Oc1ccc(O)c(-c2cn3ccsc3n2)c1,4.04 µM,15 µM,15.4 µM,28.7 µM,12.5 µM,27.7 µM,5.68 µM,21.3 µM,11.7 µM,33.7 µM,12.9 µM,25.5 µM,–,–,21.3 µM,47.9 µM,15.8 µM,33.7 µM,24.3 µM,50.3 µM
